Values joined by “and” are separate entries in the source; they are usually repeats but may differ in a detail not shown here. Equal entries are not always repeated. Where two headings read alike, the source gives them in different places.

The test system of series [1] is K1 strain of P. falciparum (resistant to chloroquine and pyrimethamine). Put plainly: in vitro screening against Plasmodium falciparum, [3H]-hypoxanthine incorporation assay. It is filed as cell-based. The settings on record: read-out: IC50 P.falc. Here is the method:
Antiplasmodial activity is determined using the K1 strain of P. falciparum (resistant to chloroquine and pyrimethamine). A modification of the [^3H]-hypoxanthine incorporation assay is used [Matile H, Pink JRL. in: Lefkovits I. and Pernis B. (Eds.). Immunological Methods, Academic Press, San Diego, 1990, 221-234.]. Briefly, infected human red blood cells in RPMI 1640 medium with 5% Albumax are exposed to serial drug dilutions in microtiter plates for 48 hours. Viability is assessed by measuring the incorporation of [^3H]-hypoxanthine by liquid scintillation counting 24 hours after the addition of the radiolabel. The counts are expressed as percentage of the control cultures, sigmoidal inhibition curves are drawn and IC50 values calculated.

Series [2] relates to T. b. rhodesiense STIB 900. Briefly: in vitro screening against Trypanosoma brucei rhodesiense, Alamar Blue assay. Type of series: cell-based. To be noted: read-out: IC50 T.rho. Here is the method:
Minimum Essential Medium (50 µl) supplemented according to Baltz et al. [Baltz T, Baltz D, Giroud C, Crockett J. EMBO J., 1985, 4: 1273-1277] with 2-mercaptoethanol and 15% heat-inactivated horse serum is added to each well of a 96-well microtiter plate. Serial drug dilutions are added to the wells. Then 50 µl of trypanosome suspension (T. b. rhodesiense STIB 900) is added to each well and the plate incubated at 37°C under a 5% CO2 atmosphere for 72 hours. Alamar Blue (10 µl) is then added to each well and incubation continued for a further 2-4 hours. The plate is then read with a Millipore Cytofluor 2300 using an excitation wavelength of 530 nm and emission wavelength of 590 nm [Räz B, Iten M, Grether-Bühler Y, Kaminsky R, Brun R. Acta Trop., 1997, 68: 139-147]. Fluorescence development is expressed as percentage of the control, and IC50 values determined. Cytotoxicity is assessed using the same assay and L-6 cells.

Series [3] concerns L-6 cells. Briefly: Cytotoxicity, same Alamar Blue assay with L-6 cells. Type of series: cell-based. The settings on record: Rattus norvegicus. Here is the method:
Serial drug dilutions are added to the wells. Then 50 µl of trypanosome suspension (T. b. rhodesiense STIB 900) is added to each well and the plate incubated at 37°C under a 5% CO2 atmosphere for 72 hours. Alamar Blue (10 µl) is then added to each well and incubation continued for a further 2-4 hours. […] Fluorescence development is expressed as percentage of the control, and IC50 values determined. Cytotoxicity is assessed using the same assay and L-6 cells.

The test system of series [4] is P. berghei ANKA strain. Briefly: in vivo screening against Plasmodium berghei in mice. The settings on record: for MSD P. berghei: mean survival day; for Activity %: percent reduction of parasitemia vs control. As to the method: • Method of infection of animals: • Male mice (Fü albino; specific pathogen free) weighing 20± 2g are infected intravenously with 2x10^7 P. berghei ANKA strain-infected erythrocytes from donor mice on day 0 of the experiment. […] Parasitemia is determined microscopically by counting 1000 red blood cells. • For low parasitemias (<1%) 2000 rbc's have to be counted. The difference between the mean value for the control group (taken as 100%) and that for each experimental group is calculated and expressed as percent reduction (=activity). • The mean survival day (MSD, in days) is recorded as well as observations concerning side effects of the drug.

Setting [5] is: Erythrocyte, K1 strain, infected human red blood cells, 48 hours drug exposure.
[6] abbreviates: L6, L-6 cells, read-out: IC50 Cytox.

Turning to `c1ccc([C@@H]2CC3(N4CCCC4)CNCC2[C@H](c2ccccc2)C3)cc1` (racemic) [Example 1, (6RS,9RS)-(±)-6,9-Diphenyl-1-pyrrolidino-3-azabicyclo[3.2.2]nonane], the IC50 in series [1] (setting [5]) stood at 0.095 µM; in series [2] (STIB 900, 72 hours incubation) it was 1 µM; in series [3] (setting [6]) it was 72.9 µM. In addition, the “MSD P. berghei” value in series [4] (ip 4x10mg/kg) was 4 days; in series [4] (ip 4x20mg/kg), 10 days; in series [4] (ip 4x50mg/kg) it was 12.3 days and 15 days; in series [4] (po 1x100mg/kg), 12 days; in series [4] (po 1x200mg/kg), 16 days; in series [4] (po 4x100mg/kg), 18.6 days. Also, the Activity % in series [4] (ip 4x10mg/kg) is 25.06%; in series [4] (ip 4x20mg/kg) it was 60.11%; in series [4] (ip 4x50mg/kg) it was 94.32% and 94.77%; in series [4] (po 1x100mg/kg), 70.52%; in series [4] (po 1x200mg/kg), 66.13%; in series [4] (po 4x100mg/kg) it was 97.7%. Besides, in series [4] (po 1x200mg/kg), the “side effects of the drug” value is on record as “toxic”.
For `C[C@@H]1CC[C@H]2[C@@H](C)C(=O)O[C@@H]3O[C@@]4(C)CC[C@@H]1[C@]32OO4` [Artemisinin], the figures for the IC50 in series [1] (setting [5]) and in series [3] (setting [6]) were 0.0064 µM and 450 µM, respectively.
With `CCN(CC)CCCC(C)Nc1ccnc2cc(Cl)ccc12` (stereo not shown) [Chloroquine, reference compound], the IC50 in series [1] (K1, Erythrocyte, 48 h) was determined as 0.12 µM; in series [3] (L6, read-out: IC50 Cytox), 188 µM. Besides, the “MSD P. berghei” value in series [4] (ip 4x10mg/kg) and in series [4] (po 4x10mg/kg) was 20 days throughout. Further, the Activity % in series [4] (ip 4x10mg/kg) and in series [4] (po 4x10mg/kg) was 99.6% each time.
With `Nc1nc(N)nc(Nc2ccc([As]3SCC(CO)S3)cc2)n1` (stereo not shown) [Melarsoprol], the IC50 in series [2] (72 h) is 0.0039 µM; in series [3] (L6, read-out: IC50 Cytox), 7.78 µM.
`N=C(N)c1ccc(OCCCCCOc2ccc(C(=N)N)cc2)cc1` [Pentamidine]: the IC50 came to 0.0075 µM in series [2] (STIB 900, 72 hours incubation) and 4720 µM in series [3] (setting [6]).

The values above are taken from patent publication EP2301627A1, “Novel antimalarial 3-azabicyclo[3.2.2]nonane derivatives” (University of Graz, priority 2009, dated 2011).
